Data taken from patent publication US20070105810A1, “THERAPEUTICS” (priority 2003, published 2007).
“Also recorded” adds a separate entry of the source.

How the values were obtained:
[1] = tested on: IP3-induced Ca2+ signal in Jurkat T cells; experiment: Ca2+ signalling evoked by microinjection of IP3 in Jurkat T cells; assay type: cell-based, human; settings: co-injection of BZ52 1 mM with IP3 4 μM
Experimental: NAADP (final concentration 100 nM), IP3 (final concentration 4 μM), and BZ52 (final concentration 1 mM) were injected into single Jurkat T cells while [Ca^2+]i was analyzed by Ca^2+ imaging. Data are presented as mean±SEM (n=4 to 13).
The Jurkat T cells were loaded with fura-2/AM and kept in the dark at room temperature until use. Glass coverslips were coated first with BSA (5 mg/ml) and subsequently with poly-L-lysine (0.1 mg/ml). Small chamber slides consisting of a rubber O-ring were sealed on thin (0.1 mm) glass coverslips by silicon grease. Then, 60 μl buffer A containing 140 mM NaCl, 5 mM KCl, 1 mM MgSO4, 1 mM CaCl2, 1 mM NaH2PO4, 5.5 mM glucose, and 20 mM HEPES (pH 7.4), and 40 μl cell suspension (2*10^6 cells/ml) suspended in the same buffer were added into the small chamber and the coverslip was mounted on the stage of a fluorescence microscope (Leica DM IRE2).
Ratiometric Ca^2+ imaging was performed as described earlier. In brief, we used an Improvision imaging system (Heidelberg, Germany) built around the Leica microscope at 100-fold magnification. Illumination at 340 and 380 nm was carried out using a monochromator system (Polychromator IV, TILL Photonics, Graefelfing, Germany). Images were taken with a gray-scale CCD camera (type C4742-95-12ER; Hamamatsu, Enfield, United Kingdom; operated in 8-bit mode). […]

[2] = tested on: cytokine production (IL-2, IFNγ, TNFα, IL-2 receptor mRNA); experiment: Quantitative PCR of cytokine mRNA in spinal cord and spleen of EAE animals; assay type: in vivo, rat; settings: spinal cord tissue 4 days after T cell transfer; BZ194 5 d, 500 μmol; relative to β actin and CD3
Experimental: Quantitative PCR of spinal cords and spleens 4 days after T cell transfer of animals treated with vehicle (DMSO) of BZ 194 (5 d, 500 μmol). IFNg A,B and IL-2 C,D mRNAs were measured in relation to housekeeping gene β actin A,C or T cell marker CD3 B,D.
(§1) mRNA was extracted using standard protocols (Sigma-Aldrich) and reversed to cDNA (Invitrogen). Taqman analysis was performed as reported (Flügel et al. 2001, Immunity) using ABI Prim 7700 Sequence Detector “Taqman” (PE Applied Biosystems). The expression of a housekeeping gene (b-actin) was set into relation to the specific mRNA. Data were obtained by independent duplicate measurements.

[3] = tested on: rat MBP-specific T cells; experiment: Cytokine (IL2 mRNA) expression of in vitro-cultured MBP-specific T cells, quantitative PCR; assay type: cell-based; settings: IL2 quantitative PCR after 48 h
Experimental: Cells were stimulated in presence of MBP-pulsed irradiated APCs and increasing concentrations of BZ194. After 48 h cells were collected for cytofluorometric cell count A and RNA extraction was performed for quantitative PCR analysis (IL2) B. Effect of BZ194 on pre-activated T cell blasts C. Amplification of MBP-specific T cells which had been incubated before in the presence of DMSO or 0.5 mM or 1 mM BZ194 D.
as §1
BZ194 strongly influenced the function of rat MBP-specific T cells in vitro and in vivo. Proliferation and cytokine expression of the T cells was tested in vitro after incubation with irradiated MBP-pulsed thymic antigen presenting cells (in rats the commonly used APC type, ref. 5). […] Additionally, the expression of cytokine production by the T cells was reduced (FIG. 18B). Importantly, these effects were not due to toxicity of BZ194.

## CCCCN(CCCC)C(=O)C[n+]1cccc(C(=O)O)c1 [BZ52, 3-Carboxy-1-dibutylcarbamoylmethyl-pyridinium]
[1]
  IP3-induced Ca2+ signal: no difference

## CCCCCCCCNC(=O)C[n+]1cccc(C(=O)O)c1.[Br-] [BZ194, 3-Carboxy-1-Octylcarbamoylmethyl-Pyridinium]
[2]
  cytokine (mRNA) production ex vivo: suppressed; also recorded: significant reduction
[3]
  cytokine (mRNA) production in vitro: suppressed; also recorded: reduced
